Source: US9873883B2, “Glyphosate resistant plants and associated methods” (Dow AgroSciences LLC, priority 2012, dated 2018)

Assays:
Assay in all cases: In vitro kinetic assay (inorganic phosphate production, malachite green)
[1] = molecular target: T1, Glycine max (soybean) EPSP synthase DGT-1 variant DGT-1 v6 (G→A) (Glycine max, UniProt I1J7U9, G182A); assay type: biochemical; details: for IC50: IC50 (glyphosate)
T1 sequence (I1J7U9 with tags, fused parts or gaps G182A): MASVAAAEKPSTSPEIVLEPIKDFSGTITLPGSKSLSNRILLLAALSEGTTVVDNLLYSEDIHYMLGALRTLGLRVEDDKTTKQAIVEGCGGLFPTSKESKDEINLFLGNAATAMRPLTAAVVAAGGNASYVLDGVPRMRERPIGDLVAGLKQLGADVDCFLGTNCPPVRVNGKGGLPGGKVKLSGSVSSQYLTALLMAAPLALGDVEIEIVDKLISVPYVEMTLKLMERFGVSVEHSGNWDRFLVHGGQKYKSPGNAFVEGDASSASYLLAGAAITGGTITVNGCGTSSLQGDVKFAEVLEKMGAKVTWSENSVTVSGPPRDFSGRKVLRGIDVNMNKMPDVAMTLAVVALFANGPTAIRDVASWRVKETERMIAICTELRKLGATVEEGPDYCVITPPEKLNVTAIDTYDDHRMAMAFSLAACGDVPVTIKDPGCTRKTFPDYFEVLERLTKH
Description: (§1) The following Class I enzymes: DGT-1 from Glycine max, DGT-3 from Brassica napus (GENBANK ACC NO: P17688), and DGT-7 from Triticum aestivum (GENBANK ACC NO: EU977181) were used as a comparison. The Class I EPSP synthase enzymes and mutant variants thereof were synthesized and evaluated. A mutation introduced into the plant EPSP synthase enzymes consisted of the Glycine to Alanine mutation made within the EPSP synthase enzyme at a similar location as that of the G96A mutation from the E. coli version of the enzyme. In addition, Threonine to Isoleucine and Proline to Serine mutations were introduced within these Class I EPSP synthase enzymes at analogous positions as that of amino acid 97 (T to I) and amino acid 101 (P to S) in the EPSP synthase of E. coli as described in Funke et al., (2009).
(§2) The location of the amino acid residue which was mutated from glycine to alanine is indicated by the first asterisk. The location of the amino acid residue which was mutated from threonine to isoleucine is indicated by the second asterisk. The location of the third amino acid residue which was mutated from proline to serine is indicated by the third asterisk. These mutations were introduced into different versions of DGT-1, DGT-3, and DGT-7. The different versions of the genes which contain the mutations are described in more detail below.
(§3) Additional constructs containing the dgt-1, dgt-3 and dgt-7 were synthesized. These constructs were used for in vitro testing of the dgt-1 v5, dgt-1 v6, dgt-1 v7, dgt-1 v8, dgt-3 v6, dgt-3 v7, dgt-3 v8, dgt-7 v5, dgt-7 v6, dgt-7 v7, and dgt-7 v8 gene sequences were outsourced to GeneArt for synthesis and cloning. The synthesized genes were cloned into the pET28 expression vector. The resulting constructions were labeled as pDAB102028 containing dgt-1 v5, pDAB102029 containing dgt-1 v6, pDAB102032 containing dgt-1 v7, pDAB102034 containing dgt-1 v8, pDAB100429 containing dgt-3 v6, pDAB100442 containing dgt-3 v7, pDAB100430 containing dgt-3 v8, pDAB102036 containing dgt-7 v5, pDAB102038 containing dgt-7 v6, pDAB102040 containing dgt-7 v7, and pDAB102042 containing dgt-7 v8.
(§4) Recombinant DGT proteins were overexpressed in Rosetta2™ (DE3) cells (Novagen, Madison, Wis.) from the constructs described above. A single colony was used to inoculate 50 mL starter cultures of LB containing chloramphenicol (25 μg/mL) and kanamycin (50 μg/mL) which were cultivated overnight at 37° C. The overnight cultures were used to inoculate 1 L of LB containing chloramphenicol (25 μg/mL) and kanamycin (50 μg/mL). The cultures were grown at 37° C. to an O.D.600=0.6 then placed in an ice water bath for 10 minutes. Expression of the target proteins was achieved by addition of IPTG to a final concentration of 500 μM. Induction was allowed to proceed overnight at 20° C. followed by harvesting via centrifugation at 8,000 rpm for 20 minutes. The cell pellets were stored at −80° C. until required for purification. All purification steps were carried out at 4° C.
(§5) Cell pellets from 1 L cultures were resuspended in 20-30 mL Buffer A (50 mM HEPES pH 7.5, 150 mM KCl, 2 mM DTT, 1 mM EDTA, 20 mM imidazole, and 5% glycerol). COMPLETE™ protease inhibitor cocktail (1 tablet/50 mL, Roche, Indianapolis, Ind.) and lysozyme (1 mg/mL, Sigma-Aldrich, St. Louis, Mo.) were then added and the suspension was stirred for 20 minutes. Cell lysis was performed using a Branson Sonifier 250 (3×60 second bursts) followed by removal of the cell debris by centrifugation at 16,000 rpm for 45 minutes. DGT enzymes were purified to homogeneity in one step via immobilized metal affinity chromatography (IMAC) using a 5 mL HisTrap FF crude column. The column was equilibrated in Buffer A and the sample was loaded in the same buffer. The column was then washed with 10 column volumes of Buffer A followed by elution in a 0-100% Buffer B (50 mM HEPES pH 7.5, 200 mM KCl, 2 mM DTT, 1 mM EDTA, 500 mM imidazole, and 5% glycerol) linear gradient over 25 column volumes. […]

[2] = molecular target: T2, Brassica napus (canola) EPSP synthase DGT-3 (GENBANK P17688) variant DGT-3 v6 (G→A) (Brassica napus, UniProt P17688, G173A); assay type: biochemical; details: for IC50: IC50 (glyphosate)
T2 construct: made in house; host or cells: E. coli Rosetta2 (DE3)
T2 sequence (P17688 73-516 G173A): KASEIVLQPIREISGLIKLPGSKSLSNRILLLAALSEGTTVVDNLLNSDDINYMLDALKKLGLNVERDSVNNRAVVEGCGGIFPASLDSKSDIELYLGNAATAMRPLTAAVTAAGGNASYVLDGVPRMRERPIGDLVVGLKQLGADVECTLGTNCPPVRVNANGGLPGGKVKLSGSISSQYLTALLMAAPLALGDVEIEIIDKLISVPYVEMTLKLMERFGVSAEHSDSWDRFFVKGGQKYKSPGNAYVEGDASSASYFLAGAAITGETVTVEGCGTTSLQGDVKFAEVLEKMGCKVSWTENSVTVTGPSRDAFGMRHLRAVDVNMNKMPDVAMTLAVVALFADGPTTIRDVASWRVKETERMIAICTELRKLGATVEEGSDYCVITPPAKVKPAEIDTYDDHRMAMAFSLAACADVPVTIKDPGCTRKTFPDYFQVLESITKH
Description: as §1, §2, §3, §4, §5

[3] = molecular target: bacterial EPSP synthase DGT-11 v6, native (GENBANK YP_989551.1), SEQ ID NO:5 (Bartonella bacilliformis, UniProt A0ABN0IFN8)
Protocol: The synthesized genes were cloned into the pET28 expression vector.
as §4

C=C(OP(=O)(O)O)C(=O)O [PEP, phosphoenolpyruvate]
increase of Km for PEP ([1]; G to A mutation vs un-mutated): ~8 fold
increase of Km for PEP ([2]; G to A mutation vs un-mutated): ~8 fold

O=C(O)CNCP(=O)(O)O [glyphosate, N-(phosphonomethyl)glycine]
IC50 ([1]; at 60 μM PEP): 17.3 mM
IC50 ([1]; at 1 mM PEP): 21.1 mM
IC50 ([2]; at 60 μM PEP): 8.7 mM
IC50 ([2]; at 1 mM PEP): 15.8 mM
IC50 [3]: 9.98 mM
